Experimental data reported in DBAASP.
Values after ≈ are worked out from the molar mass of the structure shown.

How the values were obtained:
Assay in all cases: ≥ marks a high value that may be exact or a test limit, other limits are often not marked, values filed in µg/mL are converted to µM
Escherichia coli BL21 = system: Escherichia coli BL21
[1] = system: Pseudomonas aeruginosa PAO1
[2] = system: Streptococcus pyogenes M1T1 5448
Acinetobacter baumannii = system: Acinetobacter baumannii
[3] = system: Bacillus cereus ATCC 11778
[4] = system: Enterococcus faecalis ATCC 29212
[5] = system: Escherichia coli ATCC 25922
Escherichia coli O157:H7 = system: Escherichia coli O157:H7
[6] = system: Listeria monocytogenes 10403s
[7] = system: Pseudomonas aeruginosa ATCC 27853
[8] = system: Salmonella enterica subsp. enterica serovar Typhimurium ATCC 13311
[9] = system: Shigella sonnei ATCC 11060
[10] = system: Staphylococcus aureus ATCC 25923
[11] = system: Staphylococcus epidermidis ATCC 12228
Vibrio cholerae O1 Inaba = system: Vibrio cholerae O1 Inaba
Escherichia coli UB1005 = system: Escherichia coli UB1005
[12] = system: Salmonella enterica subsp. enterica serovar Choleraesuis CVCC 503
[13] = system: Salmonella enterica subsp. enterica serovar Pullorum C79-13
[14] = system: Salmonella enterica subsp. enterica serovar Typhimurium ATCC 14028
[15] = system: Salmonella enterica subsp. enterica serovar Typhimurium C77-31
[16] = system: Staphylococcus aureus ATCC 29213
[17] = system: Staphylococcus aureus ATCC 43300
Staphylococcus aureus = system: Staphylococcus aureus
Streptococcus agalactiae = system: Streptococcus agalactiae
Escherichia coli KF111 = system: Escherichia coli KF111
Escherichia coli KF130 = system: Escherichia coli KF130
Escherichia coli = system: Escherichia coli
[18] = system: Pseudomonas aeruginosa H374
[19] = system: Pseudomonas aeruginosa H744
[20] = system: Pseudomonas aeruginosa K799
[21] = system: Salmonella enterica subsp. enterica serovar Typhimurium ATCC 14028s
[22] = system: Staphylococcus epidermidis

`CC[C@H](C)[C@H](NC(=O)[C@H](CCCCN)NC(=O)[C@H](CCCCN)NC(=O)[C@H](CCCCN)NC(=O)[C@H](CC(C)C)NC(=O)[C@H](CCCN=C(N)N)NC(=O)[C@H](CCC(N)=O)NC(=O)[C@H](Cc1ccccc1)NC(=O)[C@@H](NC(=O)[C@@H](NC(=O)[C@H](CCC(=O)O)NC(=O)[C@H](CCCCN)NC(=O)CNC(=O)[C@H](C)N)[C@@H](C)O)[C@@H](C)CC)C(=O)N[C@@H](CCC(N)=O)C(=O)N[C@@H](CCC(=O)O)C(=O)N[C@@H](CCCCN)C(=O)N[C@@H](Cc1c[nH]c2ccccc12)C(=O)N[C@@H](CCCCN)C(=O)N[C@@H](CCCN=C(N)N)C(=O)N[C@@H](C)C(=O)N[C@H](C(=O)N[C@H](C(=O)N[C@@H](C)C(=O)N[C@@H](Cc1c[nH]c2ccccc12)C(=O)O)[C@@H](C)CC)[C@@H](C)O` [AGKETIFQRLKKKIQEKWKRATIAW] showed an MIC (Escherichia coli BL21) of 1 µM (≈ 3.06 µg/mL), an MIC [1] of 16 µM (≈ 48.9 µg/mL) and an MIC [2] of 4 µM (≈ 12.2 µg/mL).

`CC[C@H](C)[C@H](NC(=O)[C@H](CC(=O)O)NC(=O)[C@H](Cc1ccccc1)NC(=O)[C@H](CC(C)C)NC(=O)CN)C(=O)N[C@H](C(=O)N[C@@H](CCCCN)C(=O)N[C@@H](CCCCN)C(=O)N[C@H](C(=O)N[C@@H](C)C(=O)NCC(N)=O)C(C)C)C(C)C` [GLFDIVKKVAG] was tested, and the MIC (Acinetobacter baumannii) was at least 218 µM, the MIC [3] was at least 218 µM and the MIC [4] was over 218 µM. For the same molecule, the MIC [5] was over 218 µM, the MIC (Escherichia coli O157:H7) was at least 218 µM and the MIC [6] was at least 218 µM. The MIC [7] was over 218 µM, the MIC [8] was at least 218 µM and the MIC [9] was at least 218 µM. For the same molecule, the MIC [10] was over 218 µM, the MIC [11] was over 218 µM and the MIC (Vibrio cholerae O1 Inaba) was at least 218 µM.

With `CC[C@H](C)[C@H](N)C(=O)N[C@@H](CS)C(=O)N[C@@H](CCCN=C(N)N)C(=O)N[C@@H](CCCCN)C(=O)N1CCC[C@H]1C(=O)N[C@H](C(=O)N[C@H](C(=O)N[C@@H](CS)C(=O)N[C@@H](CCCN=C(N)N)C(=O)N[C@@H](CCCCN)C(=O)N1CCC[C@H]1C(=O)N[C@H](C(=O)N[C@H](C(=O)N[C@@H](CS)C(=O)N[C@@H](CCCN=C(N)N)C(=O)N[C@@H](CCCCN)C(=O)N1CCC[C@H]1C(=O)N[C@H](C(=O)N[C@H](C(=O)N[C@@H](CS)C(=O)N[C@@H](CCCN=C(N)N)C(=O)N[C@@H](CCCCN)C(=O)N1CCC[C@H]1C(=O)N[C@H](C(N)=O)[C@@H](C)CC)[C@@H](C)CC)[C@@H](C)CC)[C@@H](C)CC)[C@@H](C)CC)[C@@H](C)CC)[C@@H](C)CC` [ICRKPIICRKPIICRKPIICRKPI] the MIC [4] was over 64 µM, the MIC (Escherichia coli UB1005) was 2 µM (≈ 5.72 µg/mL) and the MIC [12] was 8 µM (≈ 22.9 µg/mL). For the same molecule, the MIC [13] was 16 µM (≈ 45.8 µg/mL), the MIC [14] was 2 µM (≈ 5.72 µg/mL) and the MIC [15] was 4 µM (≈ 11.4 µg/mL). For the same molecule, the MIC [16] was over 64 µM, the MIC [17] was over 64 µM and the MIC (Staphylococcus aureus) was over 64 µM. It also gave an MIC [11] of over 64 µM and an MIC (Streptococcus agalactiae) of at least 64 µM.

`CC[C@H](C)[C@H](N)C(=O)N[C@H](C(=O)N[C@@H](CS)C(=O)N[C@@H](CCCN=C(N)N)C(=O)N[C@@H](CCCCN)C(=O)N1CCC[C@H]1C(=O)N[C@H](C(=O)N[C@H](C(=O)N[C@@H](CS)C(=O)N[C@@H](CCCN=C(N)N)C(=O)N[C@@H](CCCCN)C(=O)N1CCC[C@H]1C(=O)N[C@H](C(=O)N[C@H](C(=O)N[C@@H](CS)C(=O)N[C@@H](CCCN=C(N)N)C(=O)N[C@@H](CCCCN)C(=O)N1CCC[C@H]1C(=O)N[C@H](C(=O)N[C@H](C(N)=O)[C@@H](C)CC)[C@@H](C)CC)[C@@H](C)CC)[C@@H](C)CC)[C@@H](C)CC)[C@@H](C)CC)[C@@H](C)CC` [IICRKPIICRKPIICRKPII] was tested, and the MIC [4] was over 64 µM, the MIC [5] was 4 µM (≈ 9.5 µg/mL) and the MIC (Escherichia coli UB1005) was 4 µM (≈ 9.5 µg/mL). The MIC [12] was 16 µM (≈ 38 µg/mL), the MIC [13] was at least 32 µM and the MIC [14] was 8 µM (≈ 19 µg/mL). The MIC [15] was 8 µM (≈ 19 µg/mL), the MIC [16] was over 64 µM and the MIC [17] was 64 µM (≈ 152 µg/mL). The MIC (Staphylococcus aureus) was over 64 µM, the MIC [11] was 64 µM (≈ 152 µg/mL) and the MIC (Streptococcus agalactiae) was at least 64 µM.

Work on `CC[C@H](C)[C@H](NC(=O)[C@H](CCCN=C(N)N)NC(=O)[C@H](CCCCN)NC(=O)[C@H](C)NC(=O)[C@@H](NC(=O)[C@@H](N)CCCCN)[C@@H](C)CC)C(=O)N[C@@H](Cc1c[nH]c2ccccc12)C(=O)N[C@@H](CCCCN)C(=O)N[C@H](C(=O)N[C@@H](CC(C)C)C(=O)N[C@@H](CCCN=C(N)N)C(=O)N[C@@H](CCCN=C(N)N)C(=O)N[C@@H](CCCN=C(N)N)C(=O)N[C@@H](CC(C)C)C(=O)N[C@@H](Cc1ccccc1)C(=O)N[C@@H](CCCN=C(N)N)C(=O)N[C@@H](CCCN=C(N)N)C(=O)N[C@H](C(=O)N[C@@H](CCCCN)C(=O)N[C@@H](CCCCN)C(=O)N[C@H](C(=O)N[C@@H](C)C(=O)NCC(N)=O)C(C)C)C(C)C)[C@@H](C)CC` [KIAKRIWKILRRRLFRRVKKVAG] yielded an MIC (Acinetobacter baumannii) of 2.7 µM (≈ 7.81 µg/mL), an MIC [3] of 2.7 µM (≈ 7.81 µg/mL) and an MIC [4] of 10.8 µM (≈ 31.2 µg/mL). It also gave an MIC [5] of 5.4 µM (≈ 15.6 µg/mL), an MIC (Escherichia coli O157:H7) of at least 86.4 µM and an MIC [6] of 1.35 µM (≈ 3.91 µg/mL). For the same molecule, the MIC [7] was 2.7 µM (≈ 7.81 µg/mL), the MIC [8] was 2.7 µM (≈ 7.81 µg/mL) and the MIC [9] was 1.35 µM (≈ 3.91 µg/mL). The MIC [10] was 5.4 µM (≈ 15.6 µg/mL), the MIC [11] was 1.35 µM (≈ 3.91 µg/mL) and the MIC (Vibrio cholerae O1 Inaba) was 2.7 µM (≈ 7.81 µg/mL).

`CC[C@H](C)[C@H](NC(=O)[C@H](C)NC(=O)[C@H](CCCCN)NC(=O)[C@H](CC(C)C)NC(=O)[C@H](C)NC(=O)[C@@H](NC(=O)[C@H](Cc1cnc[nH]1)NC(=O)[C@H](CC(C)C)NC(=O)[C@@H](NC(=O)[C@@H](NC(=O)[C@H](CCCCN)NC(=O)[C@@H](NC(=O)[C@H](C)NC(=O)[C@H](CO)NC(=O)[C@H](CCCCN)NC(=O)[C@H](Cc1ccccc1)NC(=O)[C@@H](NC(=O)[C@H](CCCCN)NC(=O)[C@H](CC(C)C)NC(=O)[C@H](Cc1ccccc1)NC(=O)[C@H](CO)NC(=O)[C@H](CCCCN)NC(=O)[C@H](Cc1c[nH]c2ccccc12)NC(=O)[C@@H](N)CCCCN)[C@@H](C)O)C(C)C)[C@@H](C)O)C(C)C)[C@@H](C)O)C(=O)N[C@@H](CO)C(=O)N[C@@H](CO)C(=O)O` [KWKSFLKTFKSAVKTVLHTALKAISS] showed an MIC (Escherichia coli KF111) of 0.342 µM (≈ 1 µg/mL), an MIC (Escherichia coli KF130) of 0.342 µM (≈ 1 µg/mL) and an MIC (Escherichia coli UB1005) of 0.171 µM (≈ 0.5 µg/mL). It also gave an MIC (Escherichia coli) of 0.171 µM (≈ 0.5 µg/mL), an MIC [7] of 4 µM (≈ 11.7 µg/mL) and an MIC [18] of 0.685 µM (≈ 2 µg/mL). For the same molecule, the MIC [19] was 0.685 µM (≈ 2 µg/mL), the MIC [20] was 0.685 µM (≈ 2 µg/mL) and the MIC [21] was 1.37 µM (≈ 4 µg/mL). The MIC (Staphylococcus aureus) was 1.37 µM (≈ 4 µg/mL) and the MIC [22] was 1.37 µM (≈ 4 µg/mL).

`CC[C@H](C)[C@H](NC(=O)[C@H](C)NC(=O)[C@H](CCCCN)NC(=O)[C@H](CC(C)C)NC(=O)[C@H](C)NC(=O)[C@@H](NC(=O)[C@H](Cc1cnc[nH]1)NC(=O)[C@H](Cc1ccccc1)NC(=O)[C@@H](NC(=O)[C@@H](NC(=O)[C@H](CCCCN)NC(=O)[C@H](C)NC(=O)[C@@H]1CCCN1C(=O)[C@H](CO)NC(=O)[C@H](CCCCN)NC(=O)[C@H](CC(C)C)NC(=O)[C@@H](NC(=O)[C@H](CCCN=C(N)N)NC(=O)[C@H](CC(C)C)NC(=O)[C@H](Cc1ccccc1)NC(=O)[C@H](CO)NC(=O)[C@H](CCCCN)NC(=O)[C@H](Cc1c[nH]c2ccccc12)NC(=O)[C@@H](N)CCCCN)[C@@H](C)O)[C@@H](C)O)C(C)C)[C@@H](C)O)C(=O)N[C@@H](CO)C(=O)N[C@@H](CO)C(=O)O` [KWKSFLRTLKSPAKTVFHTALKAISS] was tested, and the MIC (Escherichia coli KF111) was 0.339 µM (≈ 1 µg/mL), the MIC (Escherichia coli KF130) was 0.339 µM (≈ 1 µg/mL) and the MIC (Escherichia coli UB1005) was 0.17 µM (≈ 0.5 µg/mL). For the same molecule, the MIC (Escherichia coli) was 0.17 µM (≈ 0.5 µg/mL), the MIC [18] was 2.72 µM (≈ 8 µg/mL) and the MIC [19] was 2.72 µM (≈ 8 µg/mL). For the same molecule, the MIC [20] was 5.43 µM (≈ 16 µg/mL), the MIC [21] was 1.36 µM (≈ 4 µg/mL) and the MIC (Staphylococcus aureus) was 10.9 µM (≈ 32 µg/mL). The MIC [22] was 1.36 µM (≈ 4 µg/mL).
